Here are results for eight compounds from patent US20230114728A1 (Venatorx Pharmaceuticals, Inc., priority 2019, published 2023).

The structures appear in SMILES notation. ≈ marks a conversion by molar mass, not a printed value.

One test concerns the target T1, E. coli K12 PBP3 (Escherichia coli, UniProt P0AD68).
T1 construct: made in house
In words: biochemical. The class given is binding. In short, it runs like this: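 Fluorescence polarization (ex 490/em 520 nm) competition of inhibitors against Bocillin-FL at 0.1 μM, read up to 60 min. Final PBP levels: E. coli PBP3 1.5 μM; A. baumannii PBP2 2.5 μM, PBP3 0.2 μM in Tris pH 8.0/NaCl/glycerol/Tween 20; N. gonorrhoeae PBP2 […] in Hepes pH 8.0/NaCl/glycerol. EC50 = concentration halving PBP-bound Bocillin-FL.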

For the next test, the system named is N. gonorrhoeae WHO K. The experiment in a line: Liquid broth MIC in Fastidious broth. The conditions noted are these: Neisseria gonorrhoeae, read-out: Minimum Inhibitory Concentration, N. gonorrhoeae WHO K. In kind it is cell-based. In short, it runs like this:
(§1)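 Broth microdilution in Fastidious broth with 2-fold compound series; inoculum from 24 h chocolate agar colonies, 5×10^5 CFU/mL start. Incubated ~24 hours at 36° C, 5% CO2. MIC read visually as lowest concentration giving <10% growth versus full-growth wells; strains carry mosaic PBP2.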

The next test has as its system N. gonorrhoeae WHO G. The experiment in a line: Liquid broth MIC in Fastidious broth. In kind it is cell-based. The conditions noted are these: Neisseria gonorrhoeae; N. gonorrhoeae strain WHO G; Fastidious broth; read-out: Minimum Inhibitory Concentration, N. gonorrhoeae WHO G. In a few lines: (§2)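 Colonies were swabbed from chocolate agar after 24 h growth and standardised by optical density at 600 nm. Compounds were serially diluted twofold in Fastidious broth, and bacteria added to give 5×10^5 CFU/mL. After about 24 h at 36 °C in 5% CO2, the lowest concentration allowing under 10% growth was taken as MIC.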

In test [1] the test system is N. gonorrhoeae ATCC 49226. The experiment in a line: Liquid broth MIC in Fastidious broth. In kind it is cell-based. The settings on record: Neisseria gonorrhoeae, ATCC49226; N. gonorrhoeae strain ATCC 49226; Fastidious broth; read-out: Minimum Inhibitory Concentration, N. gonorrhoeae ATCC 49226. In short, it runs like this: as §2
For another test, the system named is N. gonorrhoeae FA1090. In words: Liquid broth MIC in Fastidious broth. The settings on record: Neisseria gonorrhoeae; N. gonorrhoeae strain FA1090; Fastidious broth; read-out: Minimum Inhibitory Concentration, N. gonorrhoeae FA1090. The class given is cell-based. In short, it runs like this: as §2
For another test, the system named is N. gonorrhoeae WHO L. In words: Liquid broth MIC in Fastidious broth. The class given is cell-based. The settings on record: Neisseria gonorrhoeae; N. gonorrhoeae strain WHO L; Fastidious broth; read-out: Minimum Inhibitory Concentration, N. gonorrhoeae WHO L. In short, it runs like this: as §2
In a further test the test system is N. gonorrhoeae H041. In words: Liquid broth MIC in Fastidious broth. The conditions noted are these: Neisseria gonorrhoeae, H041, read-out: Minimum Inhibitory Concentration, N. gonorrhoeae H041. The class given is cell-based. In short, it runs like this: as §1
In another test the test system is N. gonorrhoeae WHO Q. The experiment in a line: Liquid broth MIC in Fastidious broth. The class given is cell-based. The conditions noted are these: Neisseria gonorrhoeae, read-out: Minimum Inhibitory Concentration, N. gonorrhoeae WHO Q. In short, it runs like this: as §1
Another test concerns N. gonorrhoeae WHO Z. In words: Liquid broth MIC in Fastidious broth. The settings on record: Neisseria gonorrhoeae, read-out: Minimum Inhibitory Concentration, N. gonorrhoeae WHO Z. The class given is cell-based. In short, it runs like this:
as §1

Another test has as its target T2, P. aeruginosa PBP3 (Pseudomonas aeruginosa, UniProt G3XD46).
T2 construct: made in house
In words: Bocillin-FL fluorescence polarization competition binding assay, P. aeruginosa PBP3. The settings on record: fluorescence polarization competition binding assay using Bocillin-FL. In short, it runs like this:
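Binding of boronic acid inhibitors to purified Pseudomonas aeruginosa (PA01) PBP3 was measured by fluorescence polarization competition with Bocillin-FL, a fluorescent penicillin V. Reactions of 80 μl contained 0.75 μM PBP3 and 0.1 μM Bocillin-FL in 50 mM Hepes (pH 8.0), 300 mM NaCl and 5% (v/v) glycerol, in black 384-well plates. FP (Excitation 490 nm, Emission 520 nm) was read for up to 60 minutes. EC50 is the concentration that halves PBP-bound Bocillin-FL.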
On the technique in general: Polarisation of emitted light reports the rotation of a fluorescent probe.

T2 sequence (G3XD46 whole entry): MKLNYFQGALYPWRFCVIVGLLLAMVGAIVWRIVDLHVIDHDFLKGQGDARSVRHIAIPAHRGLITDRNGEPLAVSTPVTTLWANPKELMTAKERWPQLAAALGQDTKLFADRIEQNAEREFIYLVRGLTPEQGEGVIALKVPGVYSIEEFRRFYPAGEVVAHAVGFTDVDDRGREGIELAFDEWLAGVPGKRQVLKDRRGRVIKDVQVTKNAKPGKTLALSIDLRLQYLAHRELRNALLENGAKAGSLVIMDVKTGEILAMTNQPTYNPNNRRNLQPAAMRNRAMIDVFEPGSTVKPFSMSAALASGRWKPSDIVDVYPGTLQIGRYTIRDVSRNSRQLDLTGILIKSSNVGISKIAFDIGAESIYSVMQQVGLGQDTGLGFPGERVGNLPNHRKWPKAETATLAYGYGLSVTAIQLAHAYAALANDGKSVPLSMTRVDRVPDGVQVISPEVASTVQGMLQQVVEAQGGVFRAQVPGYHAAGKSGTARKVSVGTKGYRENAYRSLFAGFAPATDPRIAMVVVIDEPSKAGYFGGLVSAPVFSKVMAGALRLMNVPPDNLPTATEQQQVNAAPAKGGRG
T1 sequence (P0AD68 1-577): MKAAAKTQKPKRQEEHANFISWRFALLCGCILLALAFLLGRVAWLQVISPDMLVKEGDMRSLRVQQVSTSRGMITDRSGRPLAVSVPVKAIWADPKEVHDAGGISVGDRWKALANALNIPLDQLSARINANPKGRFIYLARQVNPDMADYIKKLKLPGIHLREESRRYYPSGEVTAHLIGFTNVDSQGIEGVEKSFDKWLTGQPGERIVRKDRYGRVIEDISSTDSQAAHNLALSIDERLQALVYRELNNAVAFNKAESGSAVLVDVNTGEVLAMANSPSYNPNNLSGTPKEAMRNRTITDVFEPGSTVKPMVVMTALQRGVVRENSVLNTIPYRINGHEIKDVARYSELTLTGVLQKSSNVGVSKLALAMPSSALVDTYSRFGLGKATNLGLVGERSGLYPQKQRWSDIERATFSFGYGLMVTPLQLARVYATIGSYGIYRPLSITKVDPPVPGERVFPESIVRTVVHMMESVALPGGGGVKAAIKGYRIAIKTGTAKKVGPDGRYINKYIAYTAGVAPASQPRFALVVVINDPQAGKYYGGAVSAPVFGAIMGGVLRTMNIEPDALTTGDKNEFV

For `CCN1CCN(C(=O)NC(C(=O)N[C@H]2Cc3cccc(C(=O)O)c3OB2O)c2c(F)cc(NC(C)=O)cc2F)C(=O)C1=O` (stereo partly drawn) [Example 188, (3R)-3-(2-(4-acetamido-2,6-difluorophenyl)-2-(4-ethyl-2,3-dioxopiperazine-1-carboxamido)acetamido)-2-hydroxy-3,4-dihydro-2H-benzo[e][1,2]oxaborinine-8-carboxylic acid], at E. coli K12 PBP3, the 50% effective concentration (EC50) – broadly, the concentration at which the effect is half-maximal – was less than 30 µM. For the same compound, the MIC in the test with N. gonorrhoeae WHO K is more than 64 mg/L; in the test on N. gonorrhoeae WHO G it was 4 to 8 mg/L (≈ 6.65 to 13.3 µM); in [1], 4 to 8 mg/L (≈ 6.65 to 13.3 µM); in the test on N. gonorrhoeae FA1090 it was 0.25 to 0.5 mg/L (≈ 0.416 to 0.831 µM); in the test with N. gonorrhoeae WHO L, more than 64 mg/L; with N. gonorrhoeae H041, more than 64 mg/L. Further, the MIC with N. gonorrhoeae WHO Q and with N. gonorrhoeae WHO Z was 16 to 32 mg/L (≈ 26.6 to 53.2 µM) each time. Further, the “P. aeruginosa PBP3 Potency” value at P. aeruginosa PBP3 is listed as “D (D represents a potency <10 μM)”.

Compound `NCCCN1CCN(C(=O)N[C@@H](C(=O)N[C@H]2Cc3cc(Cl)c(F)c(C(=O)O)c3OB2O)c2c(F)cc(O)c(O)c2Cl)C(=O)C1=O` [Example 190, (R)-3-((R)-2-(4-(3-aminopropyl)-2,3-dioxopiperazine-1-carboxamido)-2-(2-chloro-6-fluoro-3,4-dihydroxyphenyl)acetamido)-6-chloro-7-fluoro-2-hydroxy-3,4-dihydro-2H-benzo[e][1,2]oxaborinine-8-carboxylic acid] had an EC50 at E. coli K12 PBP3 of less than 30 µM. For the same compound, the MIC in the test on N. gonorrhoeae WHO K is more than 64 mg/L; with N. gonorrhoeae WHO G, more than 64 mg/L; in test [1], more than 64 mg/L; in the test on N. gonorrhoeae FA1090, 16 to 32 mg/L (≈ 23.7 to 47.5 µM); in the test on N. gonorrhoeae WHO L it was more than 64 mg/L; with N. gonorrhoeae H041, more than 64 mg/L. In addition, the MIC in the test on N. gonorrhoeae WHO Q and with N. gonorrhoeae WHO Z was more than 64 mg/L each time. Moreover, the “P. aeruginosa PBP3 Potency” value on P. aeruginosa PBP3 is “D (D represents a potency <10 μM)”.

Regarding `CCN1CCN(C(=O)N[C@@H](C(=O)N[C@H]2Cc3cc(Cl)c(F)c(C(=O)O)c3OB2O)c2c(F)cc(O)c(O)c2Cl)C(=O)C1=O` [Example 191, (R)-6-chloro-3-((R)-2-(2-chloro-6-fluoro-3,4-dihydroxyphenyl)-2-(4-ethyl-2,3-dioxopiperazine-1-carboxamido)acetamido)-7-fluoro-2-hydroxy-3,4-dihydro-2H-benzo[e][1,2]oxaborinine-8-carboxylic acid], at E. coli K12 PBP3, the EC50 is less than 30 µM. For the same compound, the MIC in the test on N. gonorrhoeae WHO K is more than 64 mg/L; in the test on N. gonorrhoeae WHO G it was more than 64 mg/L; in test [1], more than 64 mg/L; in the test with N. gonorrhoeae FA1090, 16 to 32 mg/L (≈ 24.8 to 49.6 µM); in the test with N. gonorrhoeae WHO L it was more than 64 mg/L; in the test with N. gonorrhoeae H041, more than 64 mg/L. The MIC in the test on N. gonorrhoeae WHO Q and with N. gonorrhoeae WHO Z was more than 64 mg/L throughout. Further, the “P. aeruginosa PBP3 Potency” value at P. aeruginosa PBP3 is recorded as “D (D represents a potency <10 μM)”.

At E. coli K12 PBP3, `CCN1CCN(C(=O)NC(C(=O)N[C@H]2Cc3cccc(C(=O)O)c3OB2O)c2cc(C#N)c(OC)cc2F)C(=O)C1=O` (stereo partly drawn) [Example 192, (3R)-3-(2-(5-cyano-2-fluoro-4-methoxyphenyl)-2-(4-ethyl-2,3-dioxopiperazine-1-carboxamido)acetamido)-2-hydroxy-3,4-dihydro-2H-benzo[e][1,2]oxaborinine-8-carboxylic acid] registered a concentration for a half-maximal effect (EC50) of 30 to 500 µM. Besides, the MIC is more than 64 mg/L in the test with N. gonorrhoeae WHO K; more than 64 mg/L in the test with N. gonorrhoeae WHO G; more than 64 mg/L in [1]; 4 to 8 mg/L (≈ 6.88 to 13.8 µM) in the test on N. gonorrhoeae FA1090; more than 64 mg/L with N. gonorrhoeae WHO L; more than 64 mg/L in the test with N. gonorrhoeae H041. Besides, the MIC in the test with N. gonorrhoeae WHO Q and in the test with N. gonorrhoeae WHO Z was more than 64 mg/L in each case. On P. aeruginosa PBP3, the “P. aeruginosa PBP3 Potency” value is “D (D represents a potency <10 μM)”.

`O=C(O)c1cccc2c1OB(O)[C@@H](NC(=O)C(NC(=O)N1CCN(CC3CNC3)C(=O)C1=O)c1c(F)cc(O)cc1F)C2` (stereo partly drawn) [Example 193, (3R)-3-(2-(4-(azetidin-3-ylmethyl)-2,3-dioxopiperazine-1-carboxamido)-2-(2,6-difluoro-4-hydroxyphenyl)acetamido)-2-hydroxy-3,4-dihydro-2H-benzo[e][1,2]oxaborinine-8-carboxylic acid] yielded a concentration giving a half-maximal response (EC50) at E. coli K12 PBP3 of less than 30 µM. Also, the MIC in the test with N. gonorrhoeae WHO K was more than 64 mg/L; with N. gonorrhoeae WHO G, 16 to 32 mg/L (≈ 26.6 to 53.2 µM); in test [1], more than 64 mg/L; in the test with N. gonorrhoeae FA1090, 1 to 2 mg/L (≈ 1.66 to 3.33 µM); with N. gonorrhoeae WHO L it was more than 64 mg/L; in the test with N. gonorrhoeae H041, more than 64 mg/L. The MIC with N. gonorrhoeae WHO Q and in the test on N. gonorrhoeae WHO Z was more than 64 mg/L in each case. The “P. aeruginosa PBP3 Potency” value at P. aeruginosa PBP3 is “D (D represents a potency <10 μM)”.

For `CCN1CCN(C(=O)NC(C(=O)N[C@H]2Cc3cccc(C(=O)O)c3OB2O)c2ccc(C(=O)O)c(O)c2)C(=O)C1=O` (stereo partly drawn) [Example 196, (3R)-3-(2-(4-carboxy-3-hydroxyphenyl)-2-(4-ethyl-2,3-dioxopiperazine-1-carboxamido)acetamido)-2-hydroxy-3,4-dihydro-2H-benzo[e][1,2]oxaborinine-8-carboxylic acid], the concentration giving a half-maximal response (EC50) at E. coli K12 PBP3 was less than 30 µM. For the same compound, the MIC lay within 4 to 8 mg/L (≈ 7.04 to 14.1 µM) with N. gonorrhoeae WHO K; 1 to 2 mg/L (≈ 1.76 to 3.52 µM) with N. gonorrhoeae WHO G; 4 to 8 mg/L (≈ 7.04 to 14.1 µM) in [1]; 0.25 to 0.5 mg/L (≈ 0.44 to 0.88 µM) in the test on N. gonorrhoeae FA1090; 16 to 32 mg/L (≈ 28.2 to 56.3 µM) in the test on N. gonorrhoeae WHO L; 16 to 32 mg/L (≈ 28.2 to 56.3 µM) with N. gonorrhoeae H041. Also, the MIC in the test with N. gonorrhoeae WHO Q and with N. gonorrhoeae WHO Z was 4 to 8 mg/L (≈ 7.04 to 14.1 µM) in each case. Further, the “P. aeruginosa PBP3 Potency” value at P. aeruginosa PBP3 is recorded as “D (D represents a potency <10 μM)”.

`CCN1CCN(C(=O)NC(C(=O)N[C@H]2Cc3cccc(C(=O)O)c3OB2O)c2cc(NS(N)(=O)=O)ccc2F)C(=O)C1=O` (stereo partly drawn) [Example 197, (3R)-3-(2-(4-ethyl-2,3-dioxopiperazine-1-carboxamido)-2-(2-fluoro-5-(sulfamoylamino)phenyl)acetamido)-2-hydroxy-3,4-dihydro-2H-benzo[e][1,2]oxaborinine-8-carboxylic acid] registered an EC50 on E. coli K12 PBP3 of less than 30 µM. Further, the MIC in the test with N. gonorrhoeae WHO K was 16 to 32 mg/L (≈ 25.8 to 51.6 µM); with N. gonorrhoeae WHO G, 4 to 8 mg/L (≈ 6.45 to 12.9 µM); in test [1], 16 to 32 mg/L (≈ 25.8 to 51.6 µM); in the test with N. gonorrhoeae FA1090, 0.25 to 0.5 mg/L (≈ 0.403 to 0.806 µM); with N. gonorrhoeae WHO L it was more than 64 mg/L; in the test with N. gonorrhoeae H041, 16 to 32 mg/L (≈ 25.8 to 51.6 µM). Further, the MIC in the test on N. gonorrhoeae WHO Q and with N. gonorrhoeae WHO Z was 16 to 32 mg/L (≈ 25.8 to 51.6 µM) throughout. Also, on P. aeruginosa PBP3, the “P. aeruginosa PBP3 Potency” value is reported as “D (D represents a potency <10 μM)”.

The compound `NS(=O)(=O)Nc1ccc(F)c(C(NC(=O)N2CCN(CCF)C(=O)C2=O)C(=O)N[C@H]2Cc3cccc(C(=O)O)c3OB2O)c1` (stereo partly drawn) [Example 198, (3R)-3-(2-(2-fluoro-5-(sulfamoylamino)phenyl)-2-(4-(2-fluoroethyl)-2,3-dioxopiperazine-1-carboxamido)acetamido)-2-hydroxy-3,4-dihydro-2H-benzo[e][1,2]oxaborinine-8-carboxylic acid] yielded an EC50 at E. coli K12 PBP3 of less than 30 µM. The MIC in the test with N. gonorrhoeae WHO K is 16 to 32 mg/L (≈ 25.1 to 50.1 µM); in the test with N. gonorrhoeae WHO G it was 4 to 8 mg/L (≈ 6.27 to 12.5 µM); in [1] it was 16 to 32 mg/L (≈ 25.1 to 50.1 µM); with N. gonorrhoeae FA1090, 0.25 to 0.5 mg/L (≈ 0.392 to 0.783 µM); in the test with N. gonorrhoeae WHO L, more than 64 mg/L; in the test with N. gonorrhoeae H041 it was 16 to 32 mg/L (≈ 25.1 to 50.1 µM). In addition, the MIC with N. gonorrhoeae WHO Q and in the test on N. gonorrhoeae WHO Z was 16 to 32 mg/L (≈ 25.1 to 50.1 µM) each time. Further, on P. aeruginosa PBP3, the “P. aeruginosa PBP3 Potency” value is recorded as “D (D represents a potency <10 μM)”.
